Data: patent US20240209028A1, “CNP COMPOUNDS” (priority 2022, published 2024)
Starred links: 1 amine or outer side, 2 acyl side, 3 side chain; linkers in the order of their positions; H or OH if unused. Positions of bridges follow the written chain, without caps; N, C: chain ends. Residues, ends and D or L forms follow the SMILES beside them. *: point of attachment. C18 diacid = O=C(O)CCCCCCCCCCCCCCCCC(=O)*; γGlu = O=C(O)[C@H](CCC(=O)[*:2])N[*:1]; AEEA = NCCOCCOCC(=O)O

Target: T1, human natriuretic peptide receptor 2 (hNPR2) (Homo sapiens, UniProt P20594)
T1 construct: expressed in transfected cells; host or cells: HEK293 (ATCC CRL-1573), clone 35, co-transfected with pGloSensor-42F
T1 sequence (P20594 23-1047): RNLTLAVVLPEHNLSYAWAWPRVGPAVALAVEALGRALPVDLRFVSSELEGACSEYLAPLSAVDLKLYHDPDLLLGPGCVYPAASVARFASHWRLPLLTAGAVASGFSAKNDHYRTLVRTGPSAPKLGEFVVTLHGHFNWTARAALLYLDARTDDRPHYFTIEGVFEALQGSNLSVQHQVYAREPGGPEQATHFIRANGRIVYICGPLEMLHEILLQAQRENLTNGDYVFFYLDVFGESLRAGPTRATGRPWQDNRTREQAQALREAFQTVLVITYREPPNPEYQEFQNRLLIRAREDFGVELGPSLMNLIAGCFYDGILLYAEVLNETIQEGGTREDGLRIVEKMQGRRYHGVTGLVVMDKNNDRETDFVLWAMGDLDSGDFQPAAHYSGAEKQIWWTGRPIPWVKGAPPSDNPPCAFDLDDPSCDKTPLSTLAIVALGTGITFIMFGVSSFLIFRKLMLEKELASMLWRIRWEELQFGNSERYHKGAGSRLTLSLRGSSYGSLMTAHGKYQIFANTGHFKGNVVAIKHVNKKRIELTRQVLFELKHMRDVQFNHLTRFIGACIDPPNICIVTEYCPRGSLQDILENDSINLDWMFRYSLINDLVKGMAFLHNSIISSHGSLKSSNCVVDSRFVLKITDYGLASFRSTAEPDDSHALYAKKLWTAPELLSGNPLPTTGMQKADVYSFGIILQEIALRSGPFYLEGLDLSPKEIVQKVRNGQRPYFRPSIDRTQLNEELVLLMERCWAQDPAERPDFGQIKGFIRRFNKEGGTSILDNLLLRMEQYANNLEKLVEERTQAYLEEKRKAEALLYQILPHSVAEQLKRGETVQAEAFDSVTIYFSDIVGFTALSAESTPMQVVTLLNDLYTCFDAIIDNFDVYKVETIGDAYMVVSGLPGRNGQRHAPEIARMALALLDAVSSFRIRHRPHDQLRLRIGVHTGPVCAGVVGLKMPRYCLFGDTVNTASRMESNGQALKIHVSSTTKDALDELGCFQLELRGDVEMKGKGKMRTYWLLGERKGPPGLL
Experiment: In vitro hNPR2 activity assay (cGMP GloSensor reporter, HEK293)
Assay type: cell-based
Settings: for hNPR2 0% HSA. [EC50% rel CNP]: potency relative to CNP22 (0065); for EC50: 0% HSA, HEK293-hNPR2/GloSensor cells
Method: To evaluate the in vitro activity of CNP22 (0065; Chem. 1) and CNP compounds of the invention, they were tested for their ability to induce production of cyclic guanosine monophosphate (cGMP) in reporter cells expressing the human natriuretic peptide receptor 2 (hNPR2).
Cell culture: To produce the reporter cell line, HEK293 (ATCC® CRL-1573™) cells were stably transfected with the pGloSensor-42F reporter plasmid (GloSensor cGMP reporter—luciferase, Promega) and an expression plasmid encoding the hNPR2 receptor. A single cell clone was isolated for the reporter cell line. When reporter cells are exposed to an hNPR2 activating compound, hNPR2 cause production of cGMP. […] Active GloSensor luciferase is able to convert luciferin to oxyluciferin, a process that produces bioluminescence. Upon cell lysis and supply of luciferase substrate, luciferase activity can be quantified by detection of luminescence. Therefore, addition of an hNPR2 activating compound and subsequent addition of detection reagent to reporter cells causes generation of luminescence in a dose dependent manner. […] This measure, also referred to as in vitro potency, is reported for all compounds tested. In all the in vitro activity experiments, CNP22 was used as a positive in-plate control for hNPR2 activation. To reduce inter-assay variation, we also report the potency of each compound relative to the potency of the CNP22 control on each plate.
Procedure: HEK293-hNPR2/GloSensor clone 35 cells were continuously cultured in selection medium (DMEM containing 10% FCS, 1% P/S, 200 μg/mL G418 and 100 μg/mL hygromycin). To perform the assay, cells were detached with TrypLE Express (Gibco #12604013), put through a 70 μm cell strainer, counted and seeded in 30 μL/well assay medium (DMEM without phenol red and with 1% P/S) at 10,000 cells/well in white 384-well plates (Perkin Elmer #6007680) overnight. The following day, test compounds were serial diluted in dilution medium (DMEM without phenol red containing 1% OVA (Sigma #A5505 lot 04M7001V), 0.01% Tween20 (Roche #33766700) and 1% P/S) and 10 μL/well of diluted test compounds were subsequently added to the cells. For each compound, ten different concentrations in the range 0.25 μM-10 μM were tested. After 30 min of incubation at 37° C. and 5% CO2, 40 μL/well Bright-Glo detection reagent (Promega #E2650) was added. […] To determine the in vitro potency or EC50 of each test compound, a four parameter logistic regression was done on the raw data for each test compound using the Python package SciPy optimize. The average EC50 values are listed as “hNPR2 0% HSA. [EC50 (nM)]” in Table 2. A relative potency was calculated by the following expression: EC50 (CNP22 in-plate control)/EC50 (test compound)*100, shown as “hNPR2 0% HSA. [EC50% rel CNP]” in Table 2. A minimum of two replicates was measured for each test compound.

SMILES	hNPR2 0% HSA. [EC50% rel CNP]	EC50
CC[C@H](C)[C@@H]1NC(=O)[C@H](CCCNC(=N)N)NC(=O)[C@H](CC(=O)O)NC(=O)[C@H](CC(C)C)NC(=O)[C@@H]2CCCN2C(=O)[C@H](CC(C)C)NC(=O)CNC(=O)[C@H](Cc2ccccc2)NC(=O)[C@@H](NC(=O)CNC(=O)[C@H](CCCCN)NC(=O)[C@H](CO)NC(=O)[C@H](CC(C)C)NC(=O)CNC(=O)[C@H](CCCCN)NC(=O)[C@H](CCC(=O)O)NC(=O)[C@H](CCC(N)=O)NC(=O)[C@H](C)NC(=O)CNC(=O)[C@H](CCC(=O)O)NC(=O)[C@H](Cc2ccc(O)cc2)NC(=O)COCCOCCNC(=O)COCCOCCNC(=O)CC[C@H](NC(=O)CCCCCCCCCCCCCCCCC(=O)O)C(=O)O)CSSC[C@@H](C(=O)O)NC(=O)CNC(=O)[C@H](CC(C)C)NC(=O)CNC(=O)[C@H](CO)NC(=O)[C@H](CC(C)C)NC(=O)[C@H](CO)NC(=O)CNC1=O [compound 1226] ({C18 diacid-γGlu-AEEA-AEEA}-YEGAQEKGLSKGCFGLPLDRIGSLSGLGC-OH; disulfide 13-29)	7.5%	
CC[C@H](C)[C@@H]1NC(=O)[C@H](CCCNC(=N)N)NC(=O)[C@H](CC(=O)O)NC(=O)[C@H](CC(C)C)NC(=O)[C@@H]2CCCN2C(=O)[C@H](CC(C)C)NC(=O)CNC(=O)[C@H](Cc2ccccc2)NC(=O)[C@@H](NC(=O)CNC(=O)[C@H](CO)NC(=O)[C@H](CO)NC(=O)[C@H](CC(C)C)NC(=O)CNC(=O)[C@H](CCCCN)NC(=O)[C@H](CCC(=O)O)NC(=O)[C@H](CCC(N)=O)NC(=O)[C@H](C)NC(=O)CNC(=O)[C@H](CCC(=O)O)NC(=O)[C@H](Cc2ccc(O)cc2)NC(=O)COCCOCCNC(=O)COCCOCCNC(=O)CC[C@H](NC(=O)CCCCCCCCCCCCCCCCC(=O)O)C(=O)O)CSSC[C@@H](C(=O)O)NC(=O)CNC(=O)[C@H](CC(C)C)NC(=O)CNC(=O)[C@H](CO)NC(=O)[C@H](CC(C)C)NC(=O)[C@H](CO)NC(=O)CNC1=O [compound 1228] ({C18 diacid-γGlu-AEEA-AEEA}-YEGAQEKGLSSGCFGLPLDRIGSLSGLGC-OH; disulfide 13-29)	12.3%	
CC[C@H](C)[C@@H]1NC(=O)[C@H](CCCNC(=N)N)NC(=O)[C@H](CC(=O)O)NC(=O)[C@H](CC(C)C)NC(=O)[C@H](CCCCN)NC(=O)[C@H](CC(C)C)NC(=O)CNC(=O)[C@H](Cc2ccccc2)NC(=O)[C@@H](NC(=O)CNC(=O)[C@H](CCCCN)NC(=O)[C@H](CO)NC(=O)[C@H](CC(C)C)NC(=O)CNC(=O)[C@H](CCCCN)NC(=O)[C@H](CCC(=O)O)NC(=O)[C@H](CCC(N)=O)NC(=O)[C@H](C)NC(=O)CNC(=O)[C@H](CCCCN)NC(=O)[C@H](CCC(=O)O)NC(=O)COCCOCCNC(=O)COCCOCCNC(=O)CC[C@H](NC(=O)CCCCCCCCCCCCCCCCC(=O)O)C(=O)O)CSSC[C@@H](C(=O)O)NC(=O)CNC(=O)[C@H](CC(C)C)NC(=O)CNC(=O)[C@H](CO)NC(=O)[C@H](CC(C)C)NC(=O)[C@H](CO)NC(=O)CNC1=O [compound 1229] ({C18 diacid-γGlu-AEEA-AEEA}-EKGAQEKGLSKGCFGLKLDRIGSLSGLGC-OH; disulfide 13-29)	5.3%	4.44 nM
CC[C@H](C)[C@@H]1NC(=O)[C@H](CCCNC(=N)N)NC(=O)[C@H](CC(=O)O)NC(=O)[C@H](CC(C)C)NC(=O)[C@H](CCCCN)NC(=O)[C@H](CC(C)C)NC(=O)CNC(=O)[C@H](Cc2ccccc2)NC(=O)[C@@H](NC(=O)CNC(=O)[C@H](CO)NC(=O)[C@H](CO)NC(=O)[C@H](CC(C)C)NC(=O)CNC(=O)[C@H](CCCCN)NC(=O)[C@H](CCC(=O)O)NC(=O)[C@H](CCC(N)=O)NC(=O)[C@H](C)NC(=O)CNC(=O)[C@H](CCCCN)NC(=O)[C@H](CCC(=O)O)NC(=O)COCCOCCNC(=O)COCCOCCNC(=O)CC[C@H](NC(=O)CCCCCCCCCCCCCCCCC(=O)O)C(=O)O)CSSC[C@@H](C(=O)O)NC(=O)CNC(=O)[C@H](CC(C)C)NC(=O)CNC(=O)[C@H](CO)NC(=O)[C@H](CC(C)C)NC(=O)[C@H](CO)NC(=O)CNC1=O [compound 1230] ({C18 diacid-γGlu-AEEA-AEEA}-EKGAQEKGLSSGCFGLKLDRIGSLSGLGC-OH; disulfide 13-29)	4.2%	6.98 nM
